Measured values taken from PubChem BioAssay (NCI).
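Each compound was tested at five concentrations against cells in 96-well plates for 48 hours. TGI is the concentration that stops growth completely.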

Legend:
Experiment in all cases: inhibition of tumour cell growth, NCI panel, 48 h
OVCAR-4 ovarian = tested on: OVCAR-4 ovarian
MOLT-4 leukemia = tested on: MOLT-4 leukemia
UACC-257 melanoma = tested on: UACC-257 melanoma
HCT-116 colon = tested on: HCT-116 colon
NCI-H226 lung = tested on: NCI-H226 lung
SK-MEL-2 melanoma = tested on: SK-MEL-2 melanoma
HT29 colon = tested on: HT29 colon
SNB-75 CNS = tested on: SNB-75 CNS
A549 NSCLC = tested on: A549 NSCLC
PC-3 prostate = tested on: PC-3 prostate

COc1c(O)c(O)cc2c1-c1ccc(OC)c(=O)cc1C(NC(C)=O)CC2 (stereo not given)
TGI (OVCAR-4 ovarian): 77.2 µM | TGI (MOLT-4 leukemia): 43.6 µM | TGI (UACC-257 melanoma): 76.9 µM | TGI (HCT-116 colon): 25.6 µM | TGI (NCI-H226 lung): 70.2 µM | TGI (SK-MEL-2 melanoma): 50.6 µM | TGI (HT29 colon): 16 µM | TGI (SNB-75 CNS): 63.9 µM | TGI (A549 NSCLC): > 100 µM | TGI (PC-3 prostate): > 100 µM

CC(C)(C)C(=O)C(Cc1ccccc1)C(=O)C(C)(C)C
TGI (OVCAR-4 ovarian): > 100 µM | TGI (MOLT-4 leukemia): > 100 µM | TGI (UACC-257 melanoma): > 100 µM | TGI (HCT-116 colon): > 100 µM | TGI (NCI-H226 lung): > 100 µM | TGI (SK-MEL-2 melanoma): > 100 µM | TGI (HT29 colon): > 100 µM | TGI (SNB-75 CNS): > 100 µM | TGI (A549 NSCLC): > 100 µM | TGI (PC-3 prostate): > 100 µM

CC1=C[C@@H](C)C[C@]2(C)CC[C@H](O2)[C@]23CC[C@](C(=O)O)(C[C@H](O2)[C@@H]2O[C@@](C)(CC2=O)[C@@H](O)[C@H]2CC[C@@]4(CCC[C@@H](O4)[C@H](C)C(=O)O[C@H]4C[C@H]([C@]5(O)OCC[C@H](C)[C@@H]5O)O[C@H]4C=C1)O2)O3
TGI (OVCAR-4 ovarian): > 10 µM | TGI (MOLT-4 leukemia): > 10 µM | TGI (UACC-257 melanoma): > 10 µM | TGI (HCT-116 colon): > 10 µM | TGI (NCI-H226 lung): > 10 µM | TGI (SK-MEL-2 melanoma): > 10 µM | TGI (HT29 colon): > 10 µM | TGI (SNB-75 CNS): > 6.85 µM | TGI (A549 NSCLC): > 10 µM | TGI (PC-3 prostate): > 10 µM
